Measurements as given in patent US6992078B2, “Plant extracts and alkaloids having antitussive activity” (The Chinese University of Hong Kong, priority 2002, dated 2006).
Entries after “also recorded” stand apart in the source; their conditions may differ.

Legend:
[1] = tested on: citric acid-induced cough; assay: Citric acid-induced cough in guinea pigs (antitussive activity); format: in vivo, guinea pig; settings: for cough episodes (result in words): citric acid-induced cough; for ED50 value (antitussive): comparative study compound A vs codeine (positive control), i.p.; for rank order of antitussive potency: guinea pig citric acid cough model; for % Cough Episode (Composed with Vehicle Control): mean ± SEM
Description: In another embodiment, a method is provided for screening for a substance that inhibits coughing activity. For example, a guinea pig is challenged with 0.5 M citric acid. Those producing more than 10 cough episodes during a first citric acid challenge are selected to be sensitive to citric acid induction and are used for further antitussive tests. The number of coughs and the cough latency in the first challenge animal are recorded as the basal level control. After 48 hours of recovery, the sensitive guinea pigs are selected and are randomly divided into different group, and then pretreated with either intraperitoneal or oral administration. For the intraperitoneal administration, the administration can be of a aqueous extract (0.3-3 g/kg), a total alkaloid extract (25-150 mg/kg), an alkaloid, for example compound A (10, 30, 50, and 100 mg/kg), or compounds B, C, D, F, G, H (133 μmol/kg), for 30 min, or of an extract suspected of having antitussive activity. For the oral administration, the administration can be of compound A or E (400 μmol/kg) for 60 min, or of an extract suspected of having antitussive activity. A second citric acid exposure is then conducted. Antitussive activity is evaluated in each treated animal as the reduction of coughs and the increase of cough latency, as compared to the basal level control.
The method previously described by Gallico et al. (1994) was adopted with the following modifications. Unrestrained guinea pigs were placed individually in a hermetically sealed transparent Perspex chamber (25 cm×12 cm×12 cm), and exposed to a nebulized aqueous solution of 0.5 M citric acid for 8 min. An ultrasonic nebulizer was used (OMRON NE-U12, Tokyo, Japan) that produced an aerosol with particles having a mass median diameter of 1˜5 μm. Approximately 0.5 ml of 0.5 M citric acid solution was nebulized per minute. During the exposure, the guinea pigs were continuously monitored by a trained observer. The episodes and latency of coughing in 8 min were detected and counted by the observer. Cough sounds were recorded concurrently and amplified via a microphone placed in the chamber. The sound waves were analyzed by a personal computer by using Cool Edit 2000 software (Syntrillium, Phenix, USA). Therefore, cough counting was performed based on both acoustic data and human observations, and in this manner the reduction or inhibition of coughing (i.e., antitussive activity) was measured.
The guinea pigs were first challenged with 0.5 M citric acid. Those producing more than 10 cough episodes during the first citric acid challenge were selected to be sensitive to citric acid induction and were used for the further antitussive tests. The number of coughs and the cough latency in the first challenge were recorded as the basal level control. After 48 hours of recovery, the sensitive guinea pigs were selected and were randomly divided into different groups with at least four guinea pigs in each group, and then pretreated with intraperitoneal administration of the aqueous extract (0.3-3 g/kg), the total alkaloid extract (25-150 mg/kg), compound A (10, 30, 50, and 100 mg/kg), and compounds B, C, D, F, G, H (133 μmol/kg), for 30 min before the second citric acid exposure. Antitussive activity was evaluated in each treated animal as the reduction of coughs and the increase of cough latency, as compared to the basal level control. Furthermore, the same antitussive test was also performed with oral administration of compounds A and E (400 μmol/kg). In addition, as a positive control, the antitussive activity of codeine (5, 10 and 30 mg/kg, i.p.) was also determined in a parallel study.

[2] = tested on: citric acid-induced cough; assay: Effect of receptor antagonists on the antitussive activity of compound A in vivo; set-up: species or system guinea pig; settings: mean ± SEM
Description: Further studies were conducted for the delineation of the mechanisms of antitussive activity produced by the representative Stemona alkaloid, compound A. Similarly, the sensitive animals were selected after the first citric acid challenge and allowed to recover for 24 hours. During the second challenge, animals were treated with a subcutaneous injection of different antagonists at different times prior to intraperitoneal administration of compound A (50 or 100 mg/kg). The antagonists examined included SCH 50911 (GABAB receptor antagonist) with a 40 min pretreatment at a dose of 10 mg/kg, WAY-100635 (5-HT1A receptor antagonist) with a 60 min pretreatment at a dose of 1 mg/kg, and haloperidol (Dopamine, D2 receptor antagonist) with a 45 min pretreatment at a dose of 1 mg/kg. In addition, naloxone (nonselective opioid receptor antagonist) was administered subcutaneously at a dose of 5 mg/kg at 20 min after intraperitoneal administration of compound A (30 and 100 mg/kg). The effects of these antagonists on the antitussive activity of compound A were assessed by comparison of the changes in cough episodes and cough latency between animal groups administrated with compound A alone and concurrent administration of compound A and each antagonist tested. Furthermore, in a parallel study, the same treatment with naloxone was also conducted in the animals pretreated with intraperitoneal administration of codeine (30 mg/kg) for the positive control.

δ1-opioid receptor = target: T1, δ1-opioid receptor (Rattus norvegicus, UniProt P33533); assay: Radiolabeled ligand binding assay, [3H]Deltorphin; settings: 10 μM, Opioid δ1, Rat forebrain, [3H]Deltrophin
T1 construct: Rat forebrain; tissue Novascreen Biosciences (contract assay); host or cells: rat forebrain
T1 sequence (P33533 whole entry): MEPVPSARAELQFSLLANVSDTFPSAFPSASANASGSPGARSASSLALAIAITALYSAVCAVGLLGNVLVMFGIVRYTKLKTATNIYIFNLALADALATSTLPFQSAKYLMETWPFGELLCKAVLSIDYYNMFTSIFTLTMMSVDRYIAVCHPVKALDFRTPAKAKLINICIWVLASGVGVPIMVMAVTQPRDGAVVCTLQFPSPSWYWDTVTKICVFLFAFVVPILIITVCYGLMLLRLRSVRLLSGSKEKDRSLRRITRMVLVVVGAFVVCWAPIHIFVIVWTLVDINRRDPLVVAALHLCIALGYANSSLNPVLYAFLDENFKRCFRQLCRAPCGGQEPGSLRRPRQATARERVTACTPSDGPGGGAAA
Description: (§1) The representative Stemona alkaloid, compound A, was subjected to the following primary receptor binding assays. The standard radiolabeled ligand binding experiments were performed at the concentration of 10 μM in duplicate by Novascreen Biosciences Crop. (7170 Standard Drive, Hanover, Md. 21076, USA). The tested receptors included all currently well-known receptors involved in producing the antitussive activity, for example, [^3H]Deltorphin (δ1-opioid receptor), [^3H]Naltrindole (δ2-opioid receptor), [^3H]DAMGO (μ-opioid receptor), [^3H]U69593 (κ1-opioid receptor), […] (GABAB receptor), [^3H]8-OH-DPAT (5HT1A receptor), and […] (Dopamine D2-receptor). […] Therefore, the results obtained from both in vivo and in vitro studies confirmed that the antitussive activity of all five effective novel Stemona alkaloids and neotuberostemonine are not involved in opiate receptor pathways.

δ2-opioid receptor = δ2-opioid receptor (Homo sapiens, UniProt P41143); assay: Radiolabeled ligand binding assay, [3H]Naltrindole; settings: 10 μM, Opioid δ2, Human recombinant
Sequence of δ2-opioid receptor (P41143 whole entry): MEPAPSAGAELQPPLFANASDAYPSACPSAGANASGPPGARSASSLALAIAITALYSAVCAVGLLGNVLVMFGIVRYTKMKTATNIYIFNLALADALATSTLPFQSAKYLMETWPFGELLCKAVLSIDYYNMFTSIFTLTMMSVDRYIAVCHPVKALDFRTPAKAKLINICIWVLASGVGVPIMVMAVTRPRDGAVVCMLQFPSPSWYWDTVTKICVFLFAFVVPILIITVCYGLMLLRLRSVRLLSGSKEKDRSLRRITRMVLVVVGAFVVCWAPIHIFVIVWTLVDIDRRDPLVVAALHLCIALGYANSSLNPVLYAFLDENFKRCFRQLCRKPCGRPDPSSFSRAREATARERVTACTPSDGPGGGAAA
Description: as §1

κ1-opioid receptor = target: T2, κ1-opioid receptor (Cavia porcellus, UniProt P41144); assay: Radiolabeled ligand binding assay, [3H]U-69593; settings: 10 μM, Opioid κ, Guinea pig cerebellum
T2 construct: Novascreen Biosciences (contract assay)
T2 sequence (P41144 whole entry): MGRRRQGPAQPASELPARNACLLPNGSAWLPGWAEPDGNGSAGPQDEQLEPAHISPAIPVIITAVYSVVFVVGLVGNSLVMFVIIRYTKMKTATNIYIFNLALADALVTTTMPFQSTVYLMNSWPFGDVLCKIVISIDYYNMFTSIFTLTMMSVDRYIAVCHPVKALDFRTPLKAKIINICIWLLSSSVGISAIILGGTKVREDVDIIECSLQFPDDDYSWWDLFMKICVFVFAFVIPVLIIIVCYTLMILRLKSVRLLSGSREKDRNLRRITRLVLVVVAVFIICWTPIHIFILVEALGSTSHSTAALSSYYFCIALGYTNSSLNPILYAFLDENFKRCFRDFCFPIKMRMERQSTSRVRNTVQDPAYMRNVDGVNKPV
Description: as §1

μ-opioid receptor = target: T3, μ-opioid receptor (Rattus norvegicus, UniProt P33535); assay: Radiolabeled ligand binding assay, [3H]DAMGO; settings: 10 μM, Rat forebrain
T3 construct: Novascreen Biosciences (contract assay)
T3 sequence (P33535 whole entry): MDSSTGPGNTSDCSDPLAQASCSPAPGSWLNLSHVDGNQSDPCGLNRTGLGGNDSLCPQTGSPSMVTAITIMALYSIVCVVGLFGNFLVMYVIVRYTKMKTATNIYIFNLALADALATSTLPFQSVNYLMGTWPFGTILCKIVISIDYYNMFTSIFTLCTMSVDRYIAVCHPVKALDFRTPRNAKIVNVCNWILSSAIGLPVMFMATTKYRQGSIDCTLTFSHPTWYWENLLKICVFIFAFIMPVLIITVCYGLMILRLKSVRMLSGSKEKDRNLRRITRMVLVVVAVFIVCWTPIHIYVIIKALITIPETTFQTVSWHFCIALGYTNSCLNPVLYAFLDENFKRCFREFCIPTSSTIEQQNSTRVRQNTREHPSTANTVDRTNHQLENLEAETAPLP
Description: as §1

GABAB receptor = target: T4, GABAB receptor (Rattus norvegicus, UniProt Q9Z0U4); assay: Radiolabeled ligand binding assay, [3H]CGP 54626A; settings: 10 μM, Rat cortex
T4 construct: Novascreen Biosciences (contract assay)
T4 sequence (Q9Z0U4 17-960 limits assumed): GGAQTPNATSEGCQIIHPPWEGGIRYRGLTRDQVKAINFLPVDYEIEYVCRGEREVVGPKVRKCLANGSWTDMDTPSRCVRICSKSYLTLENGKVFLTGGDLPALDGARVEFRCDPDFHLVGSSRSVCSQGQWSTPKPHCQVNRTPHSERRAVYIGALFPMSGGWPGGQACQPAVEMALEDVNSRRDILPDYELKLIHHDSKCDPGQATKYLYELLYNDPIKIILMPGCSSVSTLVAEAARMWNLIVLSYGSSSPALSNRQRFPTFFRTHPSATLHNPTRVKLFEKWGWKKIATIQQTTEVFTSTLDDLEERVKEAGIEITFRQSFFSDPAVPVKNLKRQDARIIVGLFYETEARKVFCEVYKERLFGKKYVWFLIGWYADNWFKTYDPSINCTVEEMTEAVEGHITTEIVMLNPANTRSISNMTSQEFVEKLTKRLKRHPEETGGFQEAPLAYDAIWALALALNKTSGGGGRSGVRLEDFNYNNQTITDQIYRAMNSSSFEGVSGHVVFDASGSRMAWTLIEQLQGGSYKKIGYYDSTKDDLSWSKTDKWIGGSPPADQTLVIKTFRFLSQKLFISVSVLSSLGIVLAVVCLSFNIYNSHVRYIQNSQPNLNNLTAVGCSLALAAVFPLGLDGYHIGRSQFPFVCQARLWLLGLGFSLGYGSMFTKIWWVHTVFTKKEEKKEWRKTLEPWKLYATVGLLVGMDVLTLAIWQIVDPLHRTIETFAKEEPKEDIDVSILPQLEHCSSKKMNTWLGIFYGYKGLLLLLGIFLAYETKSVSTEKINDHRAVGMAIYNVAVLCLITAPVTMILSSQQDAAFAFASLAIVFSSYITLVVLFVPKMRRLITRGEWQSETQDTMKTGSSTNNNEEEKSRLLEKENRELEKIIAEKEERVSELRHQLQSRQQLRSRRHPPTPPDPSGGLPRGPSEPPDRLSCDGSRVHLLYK
T4 sequence (O88871 41-940 partner): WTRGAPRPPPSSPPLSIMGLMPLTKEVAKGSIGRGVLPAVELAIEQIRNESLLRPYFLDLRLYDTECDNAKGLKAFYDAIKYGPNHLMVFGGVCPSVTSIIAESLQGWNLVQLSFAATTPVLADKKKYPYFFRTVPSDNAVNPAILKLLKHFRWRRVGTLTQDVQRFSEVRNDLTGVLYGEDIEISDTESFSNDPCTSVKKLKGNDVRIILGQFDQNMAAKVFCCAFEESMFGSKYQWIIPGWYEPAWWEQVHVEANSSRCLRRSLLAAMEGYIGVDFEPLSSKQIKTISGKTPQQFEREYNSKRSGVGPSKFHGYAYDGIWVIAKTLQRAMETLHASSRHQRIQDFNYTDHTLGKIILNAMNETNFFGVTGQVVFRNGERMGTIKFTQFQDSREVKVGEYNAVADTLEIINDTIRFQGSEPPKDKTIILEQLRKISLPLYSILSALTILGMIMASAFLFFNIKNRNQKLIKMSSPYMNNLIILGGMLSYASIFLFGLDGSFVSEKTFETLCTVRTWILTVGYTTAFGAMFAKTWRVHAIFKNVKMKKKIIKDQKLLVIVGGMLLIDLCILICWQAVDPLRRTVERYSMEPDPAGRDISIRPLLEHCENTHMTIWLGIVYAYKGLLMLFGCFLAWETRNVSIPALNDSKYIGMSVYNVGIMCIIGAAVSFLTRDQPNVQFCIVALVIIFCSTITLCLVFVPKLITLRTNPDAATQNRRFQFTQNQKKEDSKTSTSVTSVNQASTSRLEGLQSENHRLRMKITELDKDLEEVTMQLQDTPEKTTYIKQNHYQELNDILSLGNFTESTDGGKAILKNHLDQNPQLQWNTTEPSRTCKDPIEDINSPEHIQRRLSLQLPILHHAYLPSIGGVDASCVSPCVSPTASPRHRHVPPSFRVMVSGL
Description: as §1

5HT1A receptor = assay: Radiolabeled ligand binding assay, [3H]8-OH-DPAT; settings: 10 μM, Bovine hippocampus
Description: as §1

Dopamine D2-receptor = assay: Radiolabeled ligand binding assay, [3H]Glibenclamide; set-up: species or system Rat; key to Affinity: ± indicates slight but not significant inhibition on ligand binding; settings: 10 μM, Dopamine D2, Rate striatum
Description: as §1

[3] = tested on: all receptors examined (opioid δ1, δ2, κ, μ, GABAB, 5-HT1A, Dopamine D2); assay: In vitro receptor binding assays, summary over all receptors examined; settings: 10 μM, radiolabeled ligand binding
Description: as §1

[4] = ip, 133 μmol/kg, 30 min before second citric acid exposure, guinea pig
[5] = po, 400 μmol/kg, 60 min before second citric acid exposure, guinea pig

CC[C@@H]1[C@H]2CCCCN3[C@H]2[C@@H](C[C@H]3[C@@H]2C[C@H](C)C(=O)O2)[C@H]2[C@@H]1OC(=O)[C@H]2C [Compound A, Neotuberostemonine]
cough episodes (result in words) ([1]; guinea pig): inhibited citric acid-induced cough in a dose-dependent manner; also recorded: significantly inhibited cough episodes in a dose-dependent manner | ED50 value (antitussive) ([1]; guinea pig): comparable | cough latency ([1]; doses of 50 and 100 mg/kg, intraperitoneal, guinea pig): significantly increased | rank order of antitussive potency [1]: A=D>C≈F≈H≈B | % Cough Episode (Composed with Vehicle Control) [1, 4]: 16.1 ± 7.3% | % Cough Episode (Composed with Vehicle Control) [1, 5]: 21.7 ± 8.9% | % Antitussive Activity of Compound A ([2]; with Haloperidol (Dopamine D2 antagonist) 1 mg/kg sc, 45 min pretreatment, compound A ip 50 or 100 mg/kg): 115.21 ± 7.05% | % Antitussive Activity of Compound A ([2]; with Naloxone (nonselective opioid antagonist) 5 mg/kg sc 20 min after compound A ip (30 and 100 mg/kg)): 86.51 ± 11.57% | % Antitussive Activity of Compound A ([2]; with SCH 50911 (GABAB antagonist) 10 mg/kg sc, 40 min pretreatment, compound A ip 50 or 100 mg/kg): 83.25 ± 16.73% | % Antitussive Activity of Compound A ([2]; with WAY-100635 (5-HT1A antagonist) 1 mg/kg sc, 60 min pretreatment, compound A ip 50 or 100 mg/kg): 100.50 ± 1.67% | % Inhibition of Ligand Binding (average) (δ1-opioid receptor; duplicate): 5.95% | Affinity (δ1-opioid receptor): No | Affinity (δ2-opioid receptor): No | % Inhibition of Ligand Binding (average) (δ2-opioid receptor; duplicate): 8.32% | Affinity (κ1-opioid receptor): No | % Inhibition of Ligand Binding (average) (κ1-opioid receptor; duplicate): 14.40% | Affinity (μ-opioid receptor): No | % Inhibition of Ligand Binding (average) (μ-opioid receptor; duplicate): 7.37% | Affinity (GABAB receptor): No | % Inhibition of Ligand Binding (average) (GABAB receptor; duplicate): 8.06% | Affinity (5HT1A receptor): No | % Inhibition of Ligand Binding (average) (5HT1A receptor; duplicate): −18.42% | Affinity (Dopamine D2-receptor): ± | % Inhibition of Ligand Binding (average) (Dopamine D2-receptor; duplicate): 33.39% | affinity to all receptors examined (in words) [3]: did not show any affinity

CC[C@@H]1[C@@H]2CCCCN3[C@@H]2[C@@H](C[C@H]3[C@@H]2C[C@H](C)C(=O)O2)[C@H]2[C@@H]1OC(=O)[C@H]2C [Compound B, Tuberostemonine J]
cough episodes (result in words) ([1]; guinea pig): marked reduction of cough episodes | rank order of antitussive potency [1]: A=D>C≈F≈H≈B | % Cough Episode (Composed with Vehicle Control) [1, 4]: 76.3 ± 14.7 (ip) %

CC[C@@H]1[C@H]2CCCCN3[C@@H]2[C@@H](C[C@H]3[C@@H]2C[C@H](C)C(=O)O2)[C@H]2[C@@H]1OC(=O)[C@H]2C [Compound C, Tuberostemonine H]
cough episodes (result in words) ([1]; guinea pig): marked reduction of cough episodes | rank order of antitussive potency [1]: A=D>C≈F≈H≈B | % Cough Episode (Composed with Vehicle Control) [1, 4]: 50.7 ± 16.6 (ip) %

CC[C@@H]1[C@H]2CCCCN3CC[C@@H]([C@H]4[C@@H]1OC(=O)[C@H]4C)[C@@H]23 [Compound D, Neostenine]
cough episodes (result in words) ([1]; guinea pig): significantly inhibited cough episodes in a dose-dependent manner | rank order of antitussive potency [1]: A=D>C≈F≈H≈B | % Cough Episode (Composed with Vehicle Control) [1, 4]: 29.9 ± 8.3 (ip) %

CC[C@H]1[C@H]2OC(=O)[C@@H](C)[C@H]2c2cc([C@H]3C[C@H](C)C(=O)O3)n3c2[C@H]1CCCC3 [Compound E, Epibisdehydrotuberostemonine J]
% Cough Episode (Composed with Vehicle Control) [1, 5]: 136.8 ± 25.6 (po) %

CC[C@@H]1[C@H]2CCCCN3CC[C@@H]([C@H]4[C@@H]1OC[C@H]4C)[C@@H]23 [Compound H, Neostenine-ether]
cough episodes (result in words) ([1]; guinea pig): marked reduction of cough episodes | rank order of antitussive potency [1]: A=D>C≈F≈H≈B | % Cough Episode (Composed with Vehicle Control) [1, 4]: 54.4 ± 10.6 (ip) %

COc1ccc2c3c1O[C@H]1[C@@H](O)C=C[C@H]4[C@@H](C2)N(C)CC[C@@]341 [codeine, reference compound]
ED50 value (antitussive) ([1]; guinea pig): comparable

Neostenine-acid [Compound G]
% Cough Episode (Composed with Vehicle Control) [1, 4]: 104.5 ± 20.4 (ip) %

Neostenine-diol [Compound F]
cough episodes (result in words) ([1]; guinea pig): marked reduction of cough episodes | rank order of antitussive potency [1]: A=D>C≈F≈H≈B | % Cough Episode (Composed with Vehicle Control) [1, 4]: 62.2 ± 10.8 (ip) %
